Earlier results, collected in US8350059B2, “Intermediates and methods for making zearalenone macrolide analogs” (Eisai R&D Management Co., Ltd., priority 2007, dated 2013).

System: Map/Erk kinase (MEK)
Conditions: background statement

For COc1cc(O)c2c(c1)/C=C/C[C@H](O)[C@H](O)C(=O)/C=C\C[C@H](C)OC2=O [F152], the “inhibition of the phosphorylating enzyme Map/Erk kinase (MEK)” value is given as “inhibit the phosphorylating enzyme Map/Erk kinase (MEK)”.
